Biological target: T1, GPR50-EGFP receptor (Homo sapiens, UniProt Q13585)
T1 construct: signal peptide (SP) of the pCEP4-SP-EGFP vector (N); expressed in transfected cells
Experiment: Real-time measurement of energy transfer (FRET) between fluorescent ligand and GPR50-EGFP receptor on HEK 293 cells
Format: binding
Conditions: ligand at 500 nM; excitation 470 nm, fluorescence at 510 nm; FIG. 6
Source text: The binding of certain molecules was verified with the spectrofluorimeter (equipment previously described (see Example 1)).

T1 sequence (Q13585 9-617 limits assumed): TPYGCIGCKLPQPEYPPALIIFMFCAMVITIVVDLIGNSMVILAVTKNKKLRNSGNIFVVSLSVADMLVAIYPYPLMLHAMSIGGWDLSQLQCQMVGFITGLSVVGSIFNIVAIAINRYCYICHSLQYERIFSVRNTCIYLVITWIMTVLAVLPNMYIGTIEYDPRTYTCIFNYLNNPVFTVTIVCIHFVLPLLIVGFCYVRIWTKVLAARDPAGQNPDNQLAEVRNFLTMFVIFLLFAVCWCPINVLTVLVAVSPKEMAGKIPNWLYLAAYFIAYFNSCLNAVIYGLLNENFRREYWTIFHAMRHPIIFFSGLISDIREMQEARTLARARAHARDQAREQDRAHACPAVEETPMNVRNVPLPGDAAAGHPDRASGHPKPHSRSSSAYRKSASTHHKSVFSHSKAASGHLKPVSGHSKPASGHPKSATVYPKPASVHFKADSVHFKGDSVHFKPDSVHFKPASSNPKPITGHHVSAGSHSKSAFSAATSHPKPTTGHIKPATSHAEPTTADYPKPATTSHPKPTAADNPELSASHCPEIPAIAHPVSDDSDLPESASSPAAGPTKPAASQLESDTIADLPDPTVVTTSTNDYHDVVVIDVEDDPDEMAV

energy transfer: 2%
Structure (SMILES): CCN(CCN(CC)C(=O)C(Cc1c[nH]c2ccccc12)NC(=O)C(CCCCNS(=O)(=O)c1ccc2c(c1)S(=O)(=O)OC21c2ccc(N(CC)CC)cc2Oc2cc(N(CC)CC)ccc21)NC(=O)C1=CCCN(C)C1)Cc1ccccc1 (stereo not shown) [FG 229 F4]
